The record followed here is patent US11197856B2, “Bicyclic compounds and methods for their use in treating autism” (priority 2013, dated 2021).

The test system of one experiment is cerebellar explants. The experiment can be described thus: Cerebellar explants, glutamate/3-nitropropionic acid neurotoxicity. Format: cell-based, Wistar rats. On the procedure:
Cover slips were placed into a large Petri dish and washed in 70% alcohol for 5 minutes, then washed with Millipore H2O. The cover slips were air dried, and coated with Poly-D-Lysine (1 mg/ml stock solution in PBS, 90-100 μl) for 2 hours at 34° C.
Postnatal day 8 Wistar rats were used for the study. The rats were sacrificed and placed in ice for 1 minute, decapitated and the cerebellum removed and placed on ice. Cerebellum tissue was placed in 1 ml of 0.65% glucose-supplemented PBS (10 μl 65% stock D (+)glucose/1 ml PBS) in a large Petri dish, chopped up into smaller sections and triturated with a 1 ml insulin syringe via a 23 G (0.4 mm) needle, and then squirted back into the glucose solution in the large Petri dish. The tissue was sieved through (125 μm pore size gauze) and centrifuged (2 minutes at 60 g) twice to exchange the medium into serum-free BSA-supplemented START V medium (Biochrom, Germany). The second centrifugation step was done with 1 ml of START V medium. The microexplants were reconstituted into 500 μl of START V medium and put on ice.
Two hours after PDL-coating, the slides were washed with Millipore H2O and air dried. Each slide was placed into a small Petri dish (diameter: 35 mm) and 40 μl of START V/cell suspension was added. The tissue was incubated for 2 hours at 34° C. (settlement period). START V-medium (1 ml) was then added to the Petri dish and cultivated at 34° C. in the presence of 5% CO2 in air at 100% humidity for 48 hours.
For the study, certain explant cultures were exposed to vehicle (PBS) only. In the first study (Study 1) 10 μl of toxin 1 (L-glutamate—100 mM in Millipore water; final concentration; 1 mM) and 10 μl of toxin 2 (3-nitropropionic acid—50 mM—pH 7—in Millipore water, final concentration: 0.5 mM) was applied simultaneously with the drug to be tested ([…]). In each case, the drugs were left in contact with the explants for the duration of the study.
After explants were exposed to drugs for the study period, cells were then rinsed in PBS and then fixed in increasing concentrations of paraformaldehyde (500 μl of 0.4% PFA was applied; then 1.2% PFA; then 3% PFA and finally 4% PFA (each fixation step: 2-3 minutes). Finally, the microexplants were rinsed in PBS.
Neurons in the explants were then evaluated for morphology (presence of neurites) and counted as live cells per microscopic field. Four fields displaying highest cell density were counted per cover slip and the data presented as mean±standard error of the mean (SEM); n=4 each. Statistical significance was evaluated by using the non-paired Student's t-test.

Experiment [1] has as its system animals with scopolamine-induced memory impairment. The experiment can be described thus: Morris Water Maze (MWM) test with scopolamine-induced memory impairment. The note with it: scopolamine 0.3 mg/kg i.p.; day 4 of acquisition. Format: in vivo, Wistar rats. The source says: The first part of the study involved acute testing of cG-2-AllylP in the Morris Water Maze Memory (MWM) model. The MWM test is one of the most frequently used tests for assessing spatial memory in rats and is well recognized to accurately predict effects of disease and treatment on spatial memory generally. Therefore, the MWM test reflects effects of disease and treatment in human subjects. The standard procedure for MWM was followed. We used a circular swimming pool (80 cm depth×150 cm diameter) filled with opaque water, with the temperature maintained at 20° C. […] On days 1-4 of the experiment rats underwent memory acquisition trials with 6 trials (60 seconds each) in each day of testing (habituation phase). Latency to reach the platform was recorded and the daily reduction of average latency was used to measure the capability to learn where the hidden platform was. […] Experimental groups are detailed in the Table 4 below. On […], the probe MWM test was performed with the platform removed. There were 6 trials, each of maximum duration of 60s, at least 3 min rest between trials). […] Data was collected and analysed using Any-maze (v4.2) software. The data generated from behavioural tests was analysed using one-way ANOVA for determining the difference between the aged-groups. […]

Turning to `C[C@@]12CCCN1C(=O)C1(CCCC1)NC2=O` [Cyclic cyclopentyl-G-2MeP, (8aS)-Methyl-spiro[cyclopentane-1,3(4H)-tetrahydropyrrolo[1,2-a]pyrazine]-1,4(2H)-dione], the “numbers of cells having neurites” value in the experiment with cerebellar explants (administered simultaneously with glutamate) is given as “significantly increased the number of cells having neurites”. Besides, in the experiment with cerebellar explants (low doses (cG-2-AllylP: 100 pm to 10 nm)), the glutamate-induced neurotoxicity result is listed as “significant decrease in glutamate-induced neurotoxicity”.
As for `N[C@@H](CCC(=O)O)C(=O)O` [Glutamate, L-glutamate, reference compound], the “loss of cerebellar neurons having neurites” value in the experiment with cerebellar explants (glutamate 1 mM vs vehicle-treated controls) was ~85%.
`CN1[C@@H]2C[C@@H](OC(=O)[C@H](CO)c3ccccc3)C[C@H]1[C@@H]1O[C@@H]12` [scopolamine, reference compound]: the time to platform result in experiment [1] is listed as “approximately 208 % of control”.
